The record followed here is patent US8481678B2, “Peptide-based tooth whitening reagents” (E I du Pont de Nemours and Company, priority 2009, dated 2013).

Experiment [1] relates to pellicle-coated enamel substrates. The following applies: 20 μM synthetic biotinylated peptide, 30 min at 37° C.; normalized to DenP03; three replicates; no peptide −0.001. The method, then: A total of 20 synthetic peptides were manufactured using sequences obtained from Table 14. Peptides were obtained from Synbiosci (Livermore, Calif.) and included an additional SSRP sequence (SEQ ID NO: 151) at the N-terminus and biotin labeled lysine at the C-terminus.
Enamel substrates were cut to approx. 7 mm squares and mounted on wax mounting for incubation in the mouth for 30 min to form a pellicle coated surface. The pellicle-coated enamel substrates were removed from the wax backing and placed in well plates with the pellicle surface exposed as in Example 1. Each pellicle-coated substrate was incubated for 1 h at room temperature (˜22° C.) with 1 mL of blocking buffer, consisting of 1 mg/mL BSA in PBST (Pierce BupH™ #28372 with 0.1% TWEEN® 20). The blocking buffer was removed by aspirating the liquid out of each well. The tube was rinsed 2 times with wash buffer consisting of PBST. The wells were filled with 500 μL of 20 μM peptide solution which was prepared by diluting in blocking buffer. The samples were incubated for 30 min with slow shaking at 37° C. The non-binding peptide was removed by washing 6 times with PBST. Then, 500 μL of horseradish peroxidase/streptavidin conjugate (Pierce #22127), diluted 1:2000 in PBST, was added and incubated for 1 h at room temperature. The conjugate solution was removed and was washed 4 times with PBST.
Each enamel substrate was removed from the well and washed again in a 15-mL test tube with 10 mL of PBST. Each enamel substrate was then mounted in a clean well plate with only the enamel surface exposed. A 1:1 solution of TMB substrate and H2O2 (200 μL), obtained from Pierce Biotechnology (Rockford, Ill.) was added to each well and the color was allowed to develop for between 10 to 20 min, typically for 15 min, at room temperature (˜22° C.). Then, 100 μL of solution from each well was transferred to a 96-well reading plate containing stop solution (100 μL of 2 M H2SO4) in each well. The A450 was measured using a microplate spectrophotometer (Molecular Devices, Sunnyvale, Calif.). […] Each sequence was tested with three replicate enamel coated pellicle substrates.

For experiment [2], the system named is pellicle-coated HAP disks (tooth pellicle). As to the kind of experiment: Phage ELISA on pellicle-coated HAP disks. It is filed as binding, human. The following applies: over 10^10 pfu phage, TBST-0.5% washes, no-phage control 0.218. The text has this:
A total of 20 selected phage candidates (Example 1) were used in a phage ELISA experiment. Purified phage lysates were used for binding to pellicle-coated HAP disks using an anti-M13 phage antibody conjugated to horseradish-peroxidase, followed by the addition of chromogenic agent TMB (3,3′,5,5′-tetramethylbenzidine), obtained from Pierce Biotechnology (Item #34021; Rockford, Ill.). The plates were read at A450 nm.
For each phage candidate to be tested, the pellicle-coated HAP disks (3 mm diameter) was incubated for 1 h at room temperature with 200 μL of blocking buffer, consisting of 2% non-fat dry milk (Schleicher & Schuell, Inc.) in TBS. […] The tube was rinsed 6 times with wash buffer consisting of TBST-0.05%. The wells were filled with 200 μL of TBST-0.5% containing 1 mg/mL BSA (bovine serum albumin) and then 10 μL (over 10^10 pfu) of purified phage stock was added. The samples were incubated at room temperature for 60 min with slow shaking. The non-binding phage were removed by washing 6 times with TBST-0.5%. Then, 100 μL of horseradish peroxidase/anti-M13 antibody conjugate (Amersham USA, Piscataway, N.J.), diluted 1:500 in the blocking buffer, was added and incubated for 1 hour at room temperature. The conjugate solution was removed and was washed 6 times with TBST-0.5%.

Experiment [3] relates to pellicle coated bovine enamel. As to the kind of experiment: Phage ELISA on pellicle-coated bovine enamel (30 min in vivo pellicle), Example 13. It is filed as binding, human. The settings on record: 10^11 pfu, 30 min at 37° C., normalized to an internal control. The method, then: A total of 29 selected phage candidates from Table 14 were used in phage ELISA Experiment to determine binding affinity and coverage of each phage on pellicle substrates. Purified phage lysates were used for binding to pellicle coated bovine enamel using an anti-M13 phage antibody conjugated to horseradish-peroxidase, followed by the addition of chromogenic agent TMB, obtained from Pierce Biotechnology (Rockford, Ill.). The plates were read at A450nm.
The wells were filled with 1 mL of 10^11 pfu purified phage stock which was prepared by diluting in blocking buffer. […] The non-binding phage was removed by washing 5 times with PBST. […] The conjugate solution was removed and was washed 3 times with PBST.
On the technique in general: ELISA stands for enzyme-linked immunosorbent assay.

Where no end group is shown, it is not given here. The star is where a group is joined. Biotin = O=C1N[C@H]2[C@H](CS[C@H]2CCCCC(=O)*)N1

In the case of “SSRPAPPTYQTASYPHNLPSKRKMK(Biotin) [DenP28-A]”, the “O.D. at 450 nm (normalized)” value in experiment [1] is listed as 0.811.

Regarding “ASVSNYPPIHHLATSNTTVN (Tooth-binding peptide) [Pell 2]”, in experiment [2], the “O.D. at 450 nm” value turned out to be 0.75.

On to “TMTNHVYNSYTEKHSSTHRS (Synthetic oral-surface binding peptide) [DenP 02]”, for which the “O.D. at 450 nm (normalized)” value in experiment [3] worked out at 1.951.

As to “NGPDMVQSVGKHKNS (Tooth-binding peptide) [Pell 10]”, in experiment [2], the “O.D. at 450 nm” value came out at 0.729.

Take “SSRPIYPNESMSTSNVRGPYHPK(Biotin) [DenP22-A]”: in experiment [1], the “O.D. at 450 nm (normalized)” value came to 0.354.

For the substance “VNPNWVETQALHQPPGNT (Synthetic oral-surface binding peptide) [DenP 20]”, the “O.D. at 450 nm (normalized)” value in experiment [3] worked out at 1.298.

Consider “ELDHDSRHYMNGLQRKVT (Synthetic oral-surface binding peptide) [DenP 15]”, for which the “O.D. at 450 nm (normalized)” value in experiment [3] amounted to 1.112.

Take “IPWWNIRAPLNAGGG [Control, reference compound]”: the “O.D. at 450 nm (normalized)” value in experiment [3] turned out to be 1.000.

Regarding “AHPESLGIKYALDGNSDPHA (Tooth-binding peptide) [Pell 1]”, the “O.D. at 450 nm” value in experiment [2] is 0.739.

Take “SSRPVEPATKNMREARSSTQMRRIK(Biotin) [DenP4-A]”: the “O.D. at 450 nm (normalized)” value in experiment [1] is 0.803.

In the case of “ANELSTYAQTNPGSG (Synthetic oral-surface binding peptide) [DenP 25]”, the “O.D. at 450 nm (normalized)” value in experiment [3] was found to be 0.909.

For the substance “TTGSSSQADTSASMSIVPAH (Synthetic oral-surface binding peptide) [DenP 17]”, the “O.D. at 450 nm (normalized)” value in experiment [3] is recorded as 0.971.

In the case of “NPTATPHMKDPMHSNAHSSA (Tooth-binding peptide) [Pell 14]”, in experiment [2], the “O.D. at 450 nm” value was 0.7.

In the case of “DLCSMQMMNTGCHY (Tooth-binding peptide) [Pell 5]”, the “O.D. at 450 nm” value in experiment [2] is 0.83.

As to “DLCSSPSTWGSCIR (Tooth-binding peptide) [Pell 6]”, in experiment [2], the “O.D. at 450 nm” value came out at 0.735.

For “HKNENIMQYNVNDRWHITPA (Synthetic oral-surface binding peptide) [DenP 32]”, in experiment [3], the “O.D. at 450 nm (normalized)” value came to 1.441.

Take “GPQHVLMQDTHQGYAFDN (Synthetic oral-surface binding peptide) [DenP 16]”: in experiment [3], the “O.D. at 450 nm (normalized)” value turned out to be 2.190.

Consider “TPCAPASFNPHCSR (Tooth-binding peptide) [Pell 18]”, for which the “O.D. at 450 nm” value in experiment [2] is recorded as 0.416.

With “HKNAIQPVNDATTLDTTM (Synthetic oral-surface binding peptide) [DenP 09]”, the “O.D. at 450 nm (normalized)” value in experiment [3] is on record as 1.364.

On to “NPTDSTHMMHARNHE (Tooth-binding peptide) [Pell 16]”, for which the “O.D. at 450 nm” value in experiment [2] is on record as 0.578.

For “IYPNESMSTSNVRGPYHP (Synthetic oral-surface binding peptide) [DenP 22]”, in experiment [3], the “O.D. at 450 nm (normalized)” value was 1.420.

Consider “TPCATYPHFSGCRA (Tooth-binding peptide) [Pell 19]”, for which the “O.D. at 450 nm” value in experiment [2] is recorded as 0.731.

On to “NPTDHIPANSTNSRVSKGNT (Tooth-binding peptide) [Pell 15]”, for which the “O.D. at 450 nm” value in experiment [2] is listed as 0.567.

Take “GNTDTTPPNAVMEPTVQHKW (Tooth-binding peptide) [Pell 9]”: in experiment [2], the “O.D. at 450 nm” value came out at 0.755.

As to “SNATMYNIQSHSHHQ (Synthetic oral-surface binding peptide) [DenP 24]”, the “O.D. at 450 nm (normalized)” value in experiment [3] came out at 0.979.

For “WCTDFCTRSTPTSTSRSTTS (Tooth-binding peptide) [Pell 20]”, the “O.D. at 450 nm” value in experiment [2] was 0.715.

Take “FDGIGLGTATRHQNR (Synthetic oral-surface binding peptide) [DenP 12]”: the “O.D. at 450 nm (normalized)” value in experiment [3] stood at 2.079.

As for “QVPDYLSPTHQKKAFLEIPT (Synthetic oral-surface binding peptide) [DenP 29]”, the “O.D. at 450 nm (normalized)” value in experiment [3] came to 0.976.

As to “DTIHPNKMKSPSSPL (Synthetic oral-surface binding peptide) [DenP 26]”, the “O.D. at 450 nm (normalized)” value in experiment [3] is 1.039.

As to “DECMHGSDVEFCTS (Tooth-binding peptide) [Pell 4]”, in experiment [2], the “O.D. at 450 nm” value worked out at 0.664.

Turning to “AVVPADLNDHANHLS (Synthetic oral-surface binding peptide) [DenP 10]”, the “O.D. at 450 nm (normalized)” value in experiment [3] stood at 1.619.

On to “NGPEVRQIPANFEKL (Tooth-binding peptide) [Pell 11]”, for which the “O.D. at 450 nm” value in experiment [2] came to 0.607.

Regarding “DHNNRQHAVEVRENKTHTAR (Synthetic oral-surface binding peptide) [DenP 21]”, the “O.D. at 450 nm (normalized)” value in experiment [3] turned out to be 0.728.

For “NNTSADNPPETDSKHHLSMS (Tooth-binding peptide) [Pell 12]”, the “O.D. at 450 nm” value in experiment [2] amounted to 0.521.

For “TYQGVPSWPAVIDDAIRR (Synthetic oral-surface binding peptide) [DenP 19]”, the “O.D. at 450 nm (normalized)” value in experiment [3] is listed as 1.052.

Turning to “HDPNHLTHQARTIYRNANHT (Synthetic oral-surface binding peptide) [DenP 23]”, the “O.D. at 450 nm (normalized)” value in experiment [3] is on record as 1.236.

Turning to “VEPATKNMREARSSTQMRRI (Synthetic oral-surface binding peptide) [DenP 04]”, the “O.D. at 450 nm (normalized)” value in experiment [3] was 1.421.

On to “APPTYQTASYPHNLPSKRKM (Synthetic oral-surface binding peptide) [DenP 28]”, for which the “O.D. at 450 nm (normalized)” value in experiment [3] is 1.203.

In the case of “YLLPKDQTTAPQVTPIVQHK (Synthetic oral-surface binding peptide) [DenP 05]”, the “O.D. at 450 nm (normalized)” value in experiment [3] was found to be 1.087.

Consider “EPTHPTMRAQMHQSLRSSSP (Tooth-binding peptide) [Pell 8]”, for which, in experiment [2], the “O.D. at 450 nm” value worked out at 0.712.

On to “QHCITERLHPPCTK (Tooth-binding peptide) [Pell 17]”, for which, in experiment [2], the “O.D. at 450 nm” value amounted to 0.614.

For “GMPTRYYHNTPPHLTPKF (Synthetic oral-surface binding peptide) [DenP 08]”, the “O.D. at 450 nm (normalized)” value in experiment [3] was determined as 1.182.

Consider “DLGTFPNRTLKMAAH (Synthetic oral-surface binding peptide) [DenP 11]”, for which, in experiment [3], the “O.D. at 450 nm (normalized)” value is on record as 1.663.

In the case of “QAAQVHMMQHSRPTT (Synthetic oral-surface binding peptide) [DenP 13]”, the “O.D. at 450 nm (normalized)” value in experiment [3] is given as 0.845.

Turning to “NNTWPEGAGHTMPSTNIRQA (Tooth-binding peptide) [Pell 13]”, the “O.D. at 450 nm” value in experiment [2] amounted to 0.598.

As to “DPNESNYENATTVSQPTRHL (Tooth-binding peptide) [Pell 7]”, the “O.D. at 450 nm” value in experiment [2] came out at 0.831.

“SEARARTFNDHTTPMPII (Synthetic oral-surface binding peptide) [DenP 14]”: the “O.D. at 450 nm (normalized)” value in experiment [3] is 2.498.

Turning to “NGNNHTDIPNRSSYTGGSFA (Synthetic oral-surface binding peptide) [DenP 01]”, in experiment [3], the “O.D. at 450 nm (normalized)” value worked out at 1.002.

Turning to “EFPYYNDNPPNPERHTLR (Synthetic oral-surface binding peptide) [DenP 07]”, the “O.D. at 450 nm (normalized)” value in experiment [3] turned out to be 1.500.

In the case of “KAPIANMLQPHSYQYSVA (Synthetic oral-surface binding peptide) [DenP 18]”, the “O.D. at 450 nm (normalized)” value in experiment [3] was determined as 1.143.

“TNDLHANPFTGTYIAPDPTS (Synthetic oral-surface binding peptide) [DenP 30]”: the “O.D. at 450 nm (normalized)” value in experiment [3] worked out at 1.082.

Take “DECMEPLNAAHCWR (Tooth-binding peptide) [Pell 3]”: in experiment [2], the “O.D. at 450 nm” value is on record as 0.49.
